Reference: patent US12234240B2, “Substituted imidazo[5,1-d][1,2,3,5]tetrazines for the treatment of cancer” (The Board of Trustees of the University of Illinois, priority 2018, dated 2025)
Read-outs that look alike come from different tables or passages of the source.

Columns and labels:
U87 cells = experiment: Cell viability, Alamar Blue, 7-day incubation, U87; assay type: cell-based; conditions: Homo sapiens, U-87 MG, 168 h, MGMT −, error SEM
Experimental: (§1) Anticancer activity of C8 substituted imidazotetrazines. With a suite of imidazotetrazines in hand, each compound was evaluated against a panel of human GBM cell lines (Table 1a, Table 1b).

D54 cells = experiment: Cell viability, Alamar Blue, 7-day incubation, D54; assay type: cell-based; conditions: Homo sapiens, D54, 168 h, MGMT −, error SEM
Experimental: as §1

T98G cells [1] = experiment: Cell viability, Alamar Blue, 7-day incubation, T98G; assay type: cell-based; conditions: Homo sapiens, 168 h, MGMT +, error SEM
Experimental: as §1

[2] = test system: GBM Br23c oncospheres intracranially implanted; experiment: Intracranial mouse model of GBM (Br23c oncospheres); assay type: in vivo; conditions: oral gavage, 15 mg/kg TMZ or equimolar dose
From the text: FIG. 5. Evaluation of imidazotetrazines in intracranial mouse models of GBM. GBM Br23c oncospheres were intracranially implanted into female athymic nude mice. Treatment was started 5 days post implantation. […] Compounds were formulated in 10% PEG in PBS immediately prior to each treatment. Number of mice per treatment cohort≥5. Survival curves were compared using log-rank test.
in vivo Efficacy Models. Human GBM Br23c stem-like neurosphere cells were intracranially implanted in female athymic nude mice (150,000 cells/mouse). […] Mice were observed daily for any signs of deterioration, neurotoxicity, or movement disorders. They were inspected for signs of pain and distress, as in accordance with the Johns Hopkins Animal Care and Use Guidelines.

physchem = conditions: buffered saline (PBS), pH 7.4
Experimental: Hydrolytic stability of C8 substituted imidazotetrazines. […] A HPLC assay was developed to quantify the fraction of intact prodrug remaining in solution after 2 hours at pH 7.4, 37° C.

[3] = test system: Br23c GBM oncosphere cell line; experiment: Cell viability, Alamar Blue, 7-day, Br23c GBM oncosphere line; assay type: cell-based; conditions: Homo sapiens, 168 h, error SEM, read-out: 7-day IC50 MGMT − Br23C
[4] = Mouse liver microsome stability assay; assay type: in vitro ADME
Experimental: (§2) Liver microsome stability.
(§3) Mouse Liver Microsome Stability Assay. A mixture of PBS (pH 7.4), NADPH regenerating system solution A (Corning Life Sciences), and NADPH regenerating system solution B (Corning Life Sciences) was incubated at 37° C. in a shaking incubator for 5 min. Next, compound was added in DMSO (final concentration 50 μM, 0.5% DMSO) before ice-cold mouse liver microsomes (Thermo Fisher, male CD-1 mice, pooled) were added (final protein concentration of 1 mg/mL). An aliquot was immediately removed, quenched with an equal volume of 100 μM internal standard and 0.5% hydrochloric acid in ice-cold acetonitrile, and centrifuged at 13,000 rcf for 3 min. The supernatant was diluted 1:5 in ddH2O and analyzed by LC-MS. The reactions were incubated at 37° C. in a shaking incubator for 2 h. A second aliquot was removed, quenched and diluted as before and analyzed by LC-MS. The ratio of the areas of analyte:internal standard at 2 hours was compared to the ratio at t0 to determine the percentage of compound remaining. Analysis was performed on an Agilent 6230 LC/MS TOF system with a 1.8 μm, 2.1×50 mm Agilent ZORBAX Eclipse Plus C18 column.

[5] = Stability in the absence of microsomes (microsomes replaced with PBS); assay type: physicochemical; conditions: liver microsomes replaced with PBS, percentage remaining relative to t0
Experimental: as §2, §3

[6] = Assessment of hematological toxicity in vivo; conditions: mice
Experimental: Assessment of hematological toxicity. […] Both lymphocyte (FIG. 3b) and neutrophil (FIG. 8a) concentrations were decreased in TMZ-treated mice. […] Total WBC, lymphocyte, and neutrophil counts for mice treated with these compounds were equivalent to those of control mice.
Assessment of Hematological Toxicity. Male CD-1 IGS mice (n=4 mice/group) were administered a single dose of 125 mg/kg compound intravenously. Imidazotetrazines were formulated with SBEβCD in sterile water immediately prior to injection. Seven days post-treatment, mice were humanely sacrificed and whole blood was collected for assessment of total white blood cells, lymphocytes, neutrophils, platelets, and red blood cells.

T98G cells [7] = experiment: cells; assay type: cell-based
Experimental: FIG. 4. Imidazotetrazines were added to T98G cells with or without 3 h pre-treatment of O6BG (100 μM). IC50 values after 7-day incubation and fold changes between (+/−) O6BG treatments are reported. […] Error is SEM, n≥3. Statistical significance was determined by using a two-sample Student's t-test (two-tailed test, assuming equal variance).

genomic DNA of U87 cells = experiment: O6-methyldeoxyguanosine quantitation in U87 cells; assay type: cell-based, human; conditions: 100 or 1000 μM, 8 hours
Experimental: Novel imidazotetrazines induce alkylation-mediated cancer cell death. […] After 8 hours of incubation with compound, the genomic DNA was isolated, quantified, and hydrolyzed to its constituent deoxyribonucleosides, which were quantitated via LC-MS/MS analysis. […] Further confirmation that the novel compounds remain DNA alkylators was obtained upon pre-treatment with MGMT inhibitor O^6-benzylguanine (O6BG). O6BG is a pseudosubstrate for MGMT that quenches cellular stores of the enzyme, leading to the persistence of O^6-methylguanine DNA adducts.
O^6-Methyldeoxyguanosine Quantitation. U87 cells were plated at 1×10^6 c/w in a 6-well plate before they were treated with compound at the indicated concentration (1% final concentration DMSO). After 8 h incubation, the cells were harvested and pelleted. Genomic DNA was extracted using the DNeasy Blood & Tissue Kit (Qiagen, ID: 69504). DNA was then precipitated using the following procedure: 1/10 v/v 3M sodium acetate (pH 5.2) and 2.5× v/v ethanol was added to each sample which was then kept at −80° C. for 1 h. […] The concentration of DNA in each sample was quantified measuring absorbance on a NanoDrop 2000 UV-Vis Spectrophotometer (Thermo Fisher). […] Hydrolyzed samples were then submitted for LC-MS/MS quantitation. Samples were analyzed with a 5500 QTRAP LC/MS/MS system (AB Sciex) with a 1200 series HPLC system (Agilent).

human GBM cell lines = experiment: Viability in panel of human GBM cell lines; assay type: cell-based
Experimental: as §1

[8] = cited from earlier work
glioblastoma = conditions: cited from earlier work
[9] = Table 1a, 7 days, n ≥ 3, read-out: IC50 U87
[10] = Table 1a, 7 days, read-out: IC50 D54
[11] = Table 1a, 7 days, read-out: IC50 T98G

Compound: Cc1ncn2c(=O)n(C)nnc12 [Compound 14, 3,8-dimethylimidazo[5,1-d][1,2,3,5]tetrazin-4(3H)-one]
- IC50 (U87 cells; [9]): 3 ± 1 µM
- IC50 (D54 cells; [10]): 6 ± 3 µM
- IC50 (T98G cells [1]; [11]): 6 ± 1 µM
- effect on survival in words [2]: no effect
- half-life (physchem): 40 h

Compound: Cn1nnc2c(C(N)=O)ncn2c1=O [TMZ, temozolomide, reference compound]
- IC50 (U87 cells; [9]): 51 ± 8 µM
- IC50 (U87 cells; Table 1b, read-out: 7-day IC50 U87): 51 ± 8 µM
- IC50 (D54 cells; [10]): 12 ± 1 µM
- IC50 (D54 cells; Table 1b, read-out: 7-day IC50 D54): 12 ± 1 µM
- IC50 (T98G cells [1]; [11]): 660 ± 10 µM
- IC50 (T98G cells [1]; Table 1b, read-out: 7-day IC50 T98G): 660 ± 10 µM
- IC50 [3]: 5.2 ± 0.2 µM
- Stability (2 h, Microsomes) ([4]; 2 h, percentage remaining relative to t0, error SEM, n ≥ 2): 87 ± 6%
- metabolic stability in words ([4]; mouse liver microsomes, 2 hours): insensitive to metabolic perturbation
- Stability (2 h, No Microsomes) [5]: 86 ± 4%
- Cohort weight 7 days Post ([6]; 7 days after single IV dose of 125 mg/kg, error SEM, 4 mice): 32 ± 1 g
- Cohort weight Pre-treatment ([6]; prior to single IV dose of 125 mg/kg, error SEM, 4 mice): 31 ± 1 g
- myelosuppression / white blood cell effect ([6]; single IV dose 125 mg/kg, complete blood count after 7 days): white blood cell (WBC) depletion
- IC50 (T98G cells [7]; Homo sapiens, 168 h, without O6BG, 7-day incubation): 660 ± 10 µM
- enhancement in cytotoxicity after O6BG pre-incubation (T98G cells [7]; O6BG 100 μM): eight-fold
- concentration of O6-methylated deoxyguanosine (genomic DNA of U87 cells): Dose dependent increases
- effect on survival in words [2]: significantly increased median survival compared with vehicle
- IC50 (human GBM cell lines; GBM cell lines with negligible MGMT expression, read-out: IC50 in cell lines with negligible MGMT expression): ≤ 50 µM
- IC50 (human GBM cell lines; GBM cell lines with significant MGMT expression, read-out: IC50 in cell lines with significant MGMT expression): > 300 µM
- cerebral spinal fluid concentrations as percent of those in the plasma ([8]; humans): 20%
- half-life ([8]; in vivo and in aqueous solutions in vitro): ~2 h
- myelotoxicity incidence in treated patients (glioblastoma; TMZ-treated patients): ~20%
- median survival (glioblastoma; patients whose tumors do not express MGMT): approximately two
